In patent US20130331314A1, “PHARMACEUTICAL COMPOSITION FOR TREATING HCV INFECTIONS” (Hoffmann-La Roche Inc., priority 2010, published 2013):

Experiment: Biopharmaceutical Classification System class
Type: physicochemical
Settings: solubility and permeability limited oral absorption

In the case of `CC(C)(C)OC(=O)N[C@H]1CCCCC/C=C\[C@@H]2C[C@@]2(C(=O)NS(=O)(=O)C2CC2)NC(=O)[C@@H]2C[C@@H](OC(=O)N3Cc4cccc(F)c4C3)CN2C1=O` [Compound I, 4-fluoro-1,3-dihydro-isoindole-2-carboxylic acid (Z)-(1S,4R,6S,14S, 18R)-14-tert-butoxycarbonylamino-4-cyclopropanesulfonylaminocarbonyl-2,15-dioxo-3,16-diaza-tricyclo[14.3.0.0^4,6]nonadec-7-en-18-yl ester], the “Biopharmaceutical Classification System class” value is reported as “Class 4”.
